For 16 molecules, IC50 and tissue uptake results are on record in patent publication US20230212549A1, “COMPOUNDS COMPRISING A […] LIGAND AND USE THEREOF” (priority 2021, published 2023).

Numbered stars: 1 amine (or outer) side, 2 acyl side, 3 side chain; on linkers, the order of the positions; unused ones are H or OH. Bridge positions count the residues as written; N and C are the ends. Square brackets hold non-standard residues; d marks the D form. Peptide text beside a SMILES is read from it. * marks the point of attachment. ξ: configuration not given here. X13 = O=C(O)CN1CCN(CC(=O)O)CCN(CC(=O)N2CCN(Cc3cc(C[*:1])cc(C[*:2])c3)CC2)CCN(CC(=O)O)CC1; X11 = O=C(O)CN1CCN(CC(=O)O)CCN(C(CCC(=O)NCCSCc2cc(C[*:1])cc(C[*:2])c2)C(=O)O)CC1; Pro(4S-NH2) = N[C@@H]1CN[C@H](C(=O)O)C1; 2Nal = N[C@@H](Cc1ccc2ccccc2c1)C(=O)O; mXylylene = c1cc(C[*:1])cc(C[*:2])c1; 2Thi = N[C@@H](Cc1cccs1)C(=O)O; Pen = CC(C)(S)[C@H](N)C(=O)O; Nphe = O=C(O)CNCc1ccccc1; Hexanoyl = CCCCCC(=O)*; Nlys = NCCCCNCC(=O)O; ξC = NC(CS)C(=O)O

Data set [1] has as its target T1, FAP-expressing human WI-38 fibroblasts (Homo sapiens, UniProt Q12884).
T1 construct: FAP-expressing human WI-38 fibroblasts (ECACC) were cultured in EMEM; host or cells: WI-38 human fibroblasts
Briefly: Competitive FACS binding assay. The procedure: Cells were analyzed in an Attune NxT flow cytometer. […] […].
Cells were analyzed in an Attune NxT flow cytometer. […]

The next data set concerns the target Human recombinant FAP (Homo sapiens, UniProt Q12884). Briefly: FRET-based FAP protease activity assay. More on the design: purchased R&D systems 3715-SE. In kind it is biochemical.
A short description of the next data set: in vivo. The conditions noted are these: female, athymic nude, mouse, iv.
Where [2] appears, read: pIC50 Category (activity), Recombinant human FAP.
The mark [3] stands for this setting: pIC50 Category (Activity), FRET-based FAP protease activity assay, recombinant human FAP, 37° C.
[4] abbreviates: pIC50 Category (Activity), FRET-peptide substrate, 37° C.

T1 sequence (Q12884 whole entry): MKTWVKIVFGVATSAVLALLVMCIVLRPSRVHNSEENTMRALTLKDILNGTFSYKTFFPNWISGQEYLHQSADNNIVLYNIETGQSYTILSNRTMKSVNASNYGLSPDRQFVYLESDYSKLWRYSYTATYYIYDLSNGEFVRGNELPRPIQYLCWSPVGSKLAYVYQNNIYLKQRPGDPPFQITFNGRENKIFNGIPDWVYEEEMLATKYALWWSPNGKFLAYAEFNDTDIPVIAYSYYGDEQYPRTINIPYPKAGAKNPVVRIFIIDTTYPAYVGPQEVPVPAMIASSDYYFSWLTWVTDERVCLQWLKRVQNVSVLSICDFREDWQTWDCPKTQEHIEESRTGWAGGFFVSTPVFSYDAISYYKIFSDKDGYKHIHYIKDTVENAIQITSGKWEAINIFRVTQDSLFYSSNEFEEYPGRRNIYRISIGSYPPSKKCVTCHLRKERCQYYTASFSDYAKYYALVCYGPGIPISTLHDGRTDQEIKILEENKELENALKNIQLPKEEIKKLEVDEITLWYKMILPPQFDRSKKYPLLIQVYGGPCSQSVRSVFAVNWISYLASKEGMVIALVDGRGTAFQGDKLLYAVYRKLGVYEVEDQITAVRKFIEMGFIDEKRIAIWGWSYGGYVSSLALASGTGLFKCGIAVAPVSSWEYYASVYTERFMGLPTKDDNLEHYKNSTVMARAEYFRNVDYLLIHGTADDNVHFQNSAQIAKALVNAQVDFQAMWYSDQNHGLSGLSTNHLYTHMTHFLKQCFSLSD
Human recombinant FAP, sequence (Q12884 whole entry): as above

Take `CCCC[C@H](NC(=O)CCC(=O)NCCCOCCOCCOCCCNC(=O)CCC(C(=O)O)N1CCN(CC(=O)O)CCN(CC(=O)O)CC1)C(=O)N[C@H]1CSCc2cccc(c2)CSCC(C(=O)O)NC(=O)[C@H](Cc2ccccc2)NC(=O)[C@H](CCC(N)=O)NC(=O)[C@H]([C@@H](C)O)NC(=O)[C@@H]2CCCN2C(=O)[C@@H]2CCCN2C1=O` (stereo partly drawn) [3BP-4714, NODAGA-Ttds-Nle-[Cys(3MeBn)-Pro-Pro-Thr-Glu-Phe-Cys]-OH]: the half-inhibitory concentration (IC50) (in data set [1]; at Human recombinant FAP (setting [2])) was 10 to 79.4 nM in each case. In addition, the results for the tissue uptake at 0.25 h in the data set “in vivo” (blood pool surrogate (BPS)), in “in vivo” (kidneys) and in “in vivo” (tumor) were 1.52 %ID/g, 5 %ID/g and 5.15 %ID/g, respectively. Also, the values for the tissue uptake at 1 h in the data set “in vivo” (blood pool surrogate (BPS)), in “in vivo” (kidneys) and in “in vivo” (tumor) were 0.65 %ID/g, 3.82 %ID/g and 5.44 %ID/g, respectively. In addition, the tissue uptake at 3 h in “in vivo” (blood pool surrogate (BPS)) was found to be 0.32 %ID/g; in the data set “in vivo” (kidneys) it was 3.83 %ID/g; in “in vivo” (tumor), 5.49 %ID/g.

In the case of `CCCCCC(=O)N[C@H]1CSCc2cc(cc(CN3CCN(C(=O)CN4CCN(CC(=O)O)CCN(CC(=O)O)CCN(CC(=O)O)CC4)CC3)c2)CSC[C@@H](C(=O)N[C@@H](CC(=O)O)C(N)=O)NC(=O)[C@H](Cc2ccccc2)NC(=O)[C@H](C)NC(=O)[C@H]([C@@H](C)O)NC(=O)[C@@H]2CCCN2C(=O)[C@@H]2CCCN2C1=O` [3BP-3739, Hex-[Cys(tMeBn(DOTA-PP))-Pro-Pro-Thr-Ala-Phe-Cys]-Asp-NH2] (Hexanoyl-CPPTAFCD-NH2; linker 1-7 via X13), the IC50 (in data set [1]; on Human recombinant FAP (setting [3])) was 100 to 794 nM throughout.

On to `CCCC[C@H](NC(=O)CCC(=O)NCCCOCCOCCOCCCNC(=O)CN1CCN(CC(=O)O)CCN(CC(=O)O)CCN(CC(=O)O)CC1)C(=O)N[C@H]1CSCc2cccc(c2)CSC[C@@H](C(=O)N[C@@H](CC(=O)O)C(=O)NCCCOCCOCCOCCCNC(=O)CCC(=O)N[C@@H](CCCCNC(=O)CN2CCN(CC(=O)O)CCN(CC(=O)O)CCN(CC(=O)O)CC2)C(N)=O)NC(=O)[C@H](Cc2ccccc2)NC(=O)[C@H](CCC(N)=O)NC(=O)[C@H]([C@@H](C)O)NC(=O)[C@@H]2CCCN2C(=O)[C@@H]2CCCN2C1=O` [3BP-4393, DOTA-Ttds-Nle-[Cys(3MeBn)-Pro-Pro-Thr-Gln-Phe-Cys]-Asp-Ttds-Lys(DOTA)-NH2], for which the IC50 (in data set [1]; at Human recombinant FAP (setting [4])) was less than 10 nM throughout.

Consider `CCCCCC(=O)N[C@H]1CSCc2cc(CSCCNC(=O)CCC(C(=O)O)N3CCN(CC(=O)O)CCN(CC(=O)O)CC3)cc(c2)CSCC(C(=O)O)NC(=O)[C@H](Cc2ccccc2)NC(=O)[C@H](CCC(=O)O)NC(=O)[C@H]([C@@H](C)O)NC(=O)[C@@H]2CCCN2C(=O)[C@@H]2CCCN2C1=O` (stereo partly drawn) [3BP-4695, Hex-[Cys(tMeBn(NODAGA-AET))-Pro-Pro-Thr-Glu-Phe-Cys]-OH] (Hexanoyl-CPPTEF[ξC]-OH; linker 1-7 via X11), for which the IC50 (in data set [1]; at Human recombinant FAP (setting [2])) was 10 to 79.4 nM throughout.

For `CCCCCC(=O)N[C@H]1CSCc2cccc(c2)CSC[C@@H](C(N)=O)NC(=O)[C@H](Cc2ccc3ccccc3c2)NC(=O)[C@H](CCC(=O)O)NC(=O)[C@H]([C@@H](C)O)NC(=O)[C@@H]2CCCN2C(=O)[C@@H]2CCCN2C1=O` [3BP-3362, Hex-[Cys(3MeBn)-Pro-Pro-Thr-Glu-2Ni-Cys]-NH2] (Hexanoyl-CPPTE[2Nal]C-NH2; linker 1-7 via mXylylene), the IC50 (in data set [1]; at Human recombinant FAP (setting [3])) was 100 to 794 nM in each case.

Consider `CCCCCC(=O)N[C@H]1CSCc2cc(CSCCNC(=O)CCOCCOCCOCCOCCOCCOCCNC(=O)CCc3ccc(O)c(CN(CCN(CC(=O)O)Cc4cc(CCC(=O)O)ccc4O)CC(=O)O)c3)cc(c2)CSC[C@@H](C(=O)O)NC(=O)[C@H](Cc2ccccc2)NC(=O)[C@H](CCC(N)=O)NC(=O)[C@H]([C@@H](C)O)NC(=O)[C@@H]2CCCN2C(=O)[C@@H]2CCCN2C1=O` [3BP-4383, Hex-[Cys(tMeBn(HBED-PEG6-AET))-Pro-Pro-Thr-Gln-Phe-Cys]-OH], for which the IC50 (in data set [1]; at Human recombinant FAP (setting [4])) was 10 to 79.4 nM throughout.

As for `CCCCCC(=O)N[C@H]1CSCc2cc(CSCCNC(=O)CCP(=O)(O)CN3CCN(CP(=O)(O)CO)CCN(CP(=O)(O)CO)CC3)cc(c2)CSCC(C(N)=O)NC(=O)[C@H](Cc2ccccc2)NC(=O)[C@H](CCC(N)=O)NC(=O)[C@H]([C@@H](C)O)NC(=O)[C@@H]2CCCN2C(=O)[C@@H]2CCCN2C1=O` (stereo partly drawn) [3BP-4729, Hex-[Cys(tMeBn(NOPO-AET))-Pro-Pro-Thr-Gln-Phe-Cys]-NH2], the IC50 (in data set [1]; on Human recombinant FAP (setting [2])) was less than 10 nM each time.

As to `CCCCCC(=O)N[C@H]1CSCc2cc(cc(CN3CCN(C(=O)CN4CCN(CC(=O)O)CCN(CC(=O)O)CCN(CC(=O)O)CC4)CC3)c2)CSC[C@@H](C(=O)N[C@@H](CC(=O)O)C(N)=O)NC(=O)[C@@H]2CCCN2C(=O)[C@H](Cc2ccccc2)NC(=O)[C@@H]2CCCN2C(=O)[C@H](CCC(N)=O)NC(=O)[C@H]([C@@H](C)O)NC1=O` [3BP-3856, Hex-[Cys(tMeBn(DOTA-PP))-Thr-Gln-Pro-Phe-Pro-Cys]-Asp-NH2] (Hexanoyl-CTQPFPCD-NH2; linker 1-7 via X13), the IC50 (in data set [1]; on Human recombinant FAP (setting [3])) was greater than 1000 nM each time.

For `CCCCCC(=O)N[C@H]1CSCc2cccc(c2)CSC[C@@H](C(N)=O)NC(=O)[C@H](Cc2ccccc2)NC(=O)[C@H](CCC(N)=O)NC(=O)[C@H]([C@@H](C)O)NC(=O)[C@@H]2CCCN2C(=O)CN(CCCCN)C1=O` [3BP-3747, Hex-[Cys(3MeBn)-Nlys-Pro-Thr-Gln-Phe-Cys]-NH2] (Hexanoyl-C[Nlys]PTQFC-NH2; linker 1-7 via mXylylene), the IC50 (in data set [1]; at Human recombinant FAP (setting [3])) was greater than 1000 nM in each case.

Regarding `C[C@@H](O)[C@@H]1NC(=O)[C@@H]2CCCN2C(=O)[C@@H]2CCCN2C(=O)[C@@H](NC(=O)CCCCN)CSCc2cccc(c2)CSC[C@@H](C(N)=O)NC(=O)[C@H](Cc2ccccc2)NC(=O)[C@H](CCC(N)=O)NC1=O` [3BP-3760, H-Ava-[Cys(3MeBn)-Pro-Pro-Thr-Gln-Phe-Cys]-NH2], the IC50 (in data set [1]; on Human recombinant FAP (setting [3])) was greater than 1000 nM in each case.

`CCCCCC(=O)N[C@H]1CSCc2cccc(c2)CSC[C@@H](C(N)=O)NC(=O)CN(Cc2ccccc2)C(=O)[C@H](CCC(=O)O)NC(=O)[C@H]([C@@H](C)O)NC(=O)[C@@H]2CCCN2C(=O)[C@@H]2CCCN2C1=O` [3BP-3360, Hex-[Cys(3MeBn)-Pro-Pro-Thr-Glu-Nphe-Cys]-NH2] (Hexanoyl-CPPTE[Nphe]C-NH2; linker 1-7 via mXylylene): the IC50 (in data set [1]; on Human recombinant FAP (setting [3])) was greater than 1000 nM throughout.

As for `CCCCCC(=O)N[C@H]1CSCc2cccc(c2)CSC(C)(C)[C@@H](C(N)=O)NC(=O)[C@H](Cc2ccccc2)NC(=O)[C@H](CCC(=O)O)NC(=O)[C@H]([C@@H](C)O)NC(=O)[C@@H]2CCCN2C(=O)[C@@H]2CCCN2C1=O` [3BP-3351, Hex-[Cys(3MeBn)-Pro-Pro-Thr-Glu-Phe-Pen]-NH2] (Hexanoyl-CPPTEF[Pen]-NH2; linker 1-7 via mXylylene), the half-maximal inhibitory concentration (IC50) is greater than 1000 nM in data set [1] and 100 to 794 nM at Human recombinant FAP (setting [3]).

As to `CCCCCC(=O)N[C@H]1CSCc2cccc(c2)CSC[C@@H](C(N)=O)NC(=O)[C@H](Cc2ccccc2)NC(=O)[C@H](CCC(=O)O)NC(=O)[C@H]([C@@H](C)O)NC(=O)[C@@H]2C[C@H](N)CN2C(=O)[C@@H]2CCCN2C1=O` [3BP-3367, Hex-[Cys(3MeBn)-Pro-Tap-Thr-Glu-Phe-Cys]-NH2] (Hexanoyl-CP[Pro(4S-NH2)]TEFC-NH2; linker 1-7 via mXylylene), the IC50 is greater than 1000 nM in data set [1] and 100 to 794 nM at Human recombinant FAP (setting [3]).

As to `C[C@@H](O)[C@@H]1NC(=O)[C@@H]2CCCN2C(=O)[C@@H]2CCCN2C(=O)[C@@H](NC(=O)CCCN)CSCc2cccc(c2)CSC[C@@H](C(N)=O)NC(=O)[C@H](Cc2ccccc2)NC(=O)[C@H](CCC(N)=O)NC1=O` [3BP-3761, H-Gab-[Cys(3MeBn)-Pro-Pro-Thr-Gln-Phe-Cys]-NH2], the IC50 (in data set [1]; at Human recombinant FAP (setting [3])) was greater than 1000 nM in each case.

`CCCC[C@H](NC(=O)CCC(=O)NCCCOCCOCCOCCCNC(=O)[C@H](CCC(=O)NC[C@H](O)[C@@H](O)[C@H](O)[C@H](O)CO)NC(=O)[C@H](CCC(=O)NC[C@H](O)[C@@H](O)[C@H](O)[C@H](O)CO)NC(=O)C(CNCCN)CNCCN)C(=O)N[C@H]1CSCc2cccc(c2)CSC[C@@H](C(=O)O)NC(=O)[C@H](Cc2ccccc2)NC(=O)[C@H](CCC(N)=O)NC(=O)[C@H]([C@@H](C)O)NC(=O)[C@@H]2CCCN2C(=O)[C@@H]2CCCN2C1=O` [3BP-4265, N4Ac-Glu(AGLU′)-Glu(AGLU′)-Ttds-Nle-[Cys-(3MeBn)-Pro-Pro-Thr-Gln-Phe-Cys]-OH]: the IC50 in data set [1] was in the range of 100 to 794 nM; on Human recombinant FAP (setting [4]), 10 to 79.4 nM.

As for `CSCC[C@H](NC(C)=O)C(=O)N[C@H]1CSCc2cccc(c2)CSC[C@@H](C(=O)N[C@@H](CC(=O)O)C(=O)N[C@@H](Cc2c[nH]cn2)C(=O)N[C@@H](Cc2ccccc2)C(=O)N[C@@H](CCCNC(=N)N)C(=O)N[C@@H](CC(=O)O)C(N)=O)NC(=O)[C@H](Cc2cccs2)NC(=O)[C@H](CCC(=O)O)NC(=O)[C@H]([C@@H](C)O)NC(=O)[C@@H]2CCCN2C(=O)[C@@H]2CCCN2C1=O` [3BP-3193, Ac-Met-[Cys(3MeBn)-Pro-Pro-Thr-Glu-Thi-Cys]-Asp-His-Phe-Arg-Asp-NH2] (Ac-MCPPTE[2Thi]CDHFRD-NH2; linker 2-8 via mXylylene), the IC50 (in data set [1]; on Human recombinant FAP (setting [3])) was less than 10 nM each time.
